Assay [1] addresses KRAS G12D (Homo sapiens (Human), UniProt P01116, G12D). Briefly: KRAS G12D LoEnz Biochemical Assay, BODIPY-GDP Exchange TR-FRET (SOS1-mediated nucleotide exchange). Particulars: read-out: KRas (G12D) GDP HTRF IC50. (In general: Time-resolved FRET reads energy transfer from a long-lived donor to a nearby acceptor.)
Assay [2] addresses T1, KRAS WT (Homo sapiens (Human), UniProt P01116). The experiment in a line: KRAS WT Biochemical Assay, BODIPY-GDP Exchange TR-FRET (Example 501; 3 nM KRAS WT, 3 nM SOS1, 60-minute incubation). A digest of the protocol: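 SOS1-mediated exchange assay: 3 nM biotin-KRAS WT with terbium-streptavidin, started with 3 nM SOS1 and 300 nM BODIPY-GDP, HEPES pH 7.5 with MgCl2. TR-FRET (520/490 nm) read after 60 min; normalized to DMSO and full-inhibition control, IC50 from 4-parameter Hill fit.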

For assay [3], the target named is T1, KRAS WT. Briefly: KRAS WT Biochemical Assay, BODIPY-GDP Exchange TR-FRET (Example 502; 0.06 nM KRAS WT, 15 nM GDP, 300 nM SOS1, 120-minute incubation). As to conditions: read-out: KRas HTRF IC50. A digest of the protocol:
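Biotin-tagged recombinant KRAS WT (0.06 nM) preloaded with 15 nM GDP and Tb-streptavidin, 10 min RT, then exchange started with 300 nM SOS1 plus 300 nM BODIPY-GDP in HEPES pH 7.5 buffer with MgCl2. TR-FRET 520/490 ratio read after 120 min; normalized to DMSO and full-inhibition control; IC50 from 4-parameter fit.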

Assay [4] deals with PC-9 (KRAS wild type human lung adenocarcinoma cell line). The experiment in a line: KRAS 3D-Cell Proliferation Assay, PC-9 (CellTiter-Glo 3D, 7 days). Type of assay: cell-based. Particulars: PC-9 3D culture, read-out: Prolif PC9 3D ATP IC50. The procedure:
(§1) Example 503: KRAS 3D-Cell Proliferation Assays. Cellular potencies of compounds are assessed by evaluating inhibition of proliferation in 3D cultures of homozygous mutant KRAS G12D human pancreatic cell lines (AsPC-1 and HPAC) as compared to a KRAS wild type human lung adenocarcinoma cell line (PC-9 and/or H1975). Cells are seeded into 384-well black round-bottom, ultra-low attachment assay plates in 50 uL cell growth medium (RPMI-1640 with 10% fetal bovine serum and 2 mM L-glutamine). After overnight incubation at 37° C. and 5% CO2, compounds solubilized in DMSO are added as dilution series to the wells in a total volume of 150 nL (0.3% DMSO final). The cells are incubated for 7 days at 37° C. and 5% CO2. Cell proliferation is quantitated by addition of 40 uL/well of CellTiter-GloO 3D (Promega), and the well contents are mixed 20× at high speed using liquid handling automation workstation (Bravo with 384-well head) and centrifuged at 1500 rpm for 2 minutes to eliminate bubbles. This reagent in combination with mechanical disruption releases the cellular ATP to promote activity in a luciferase-based enzyme/substrate chemiluminescent detection system. After a 30-minute incubation under ambient conditions with shaking and an additional 10 minutes without shaking, the luminescence is read on a plate reader (e.g. EnVision [PerkinElmer]). The results are normalized to percent inhibition based on the following control samples: DMSO (0% inhibition) and 1 uM staurosporine (100% inhibition). The normalized luminescence results are plotted against compound concentration, and the data are fit to a 4-parameter Hill equation to determine the IC50 values.
On the technique in general: ATP-based viability assays read luminescence as a measure of living cells.

Assay [5] concerns AsPC-1 (homozygous mutant KRAS G12D human pancreatic cell line). The experiment in a line: KRAS 3D-Cell Proliferation Assay, AsPC-1 (CellTiter-Glo 3D, 7 days). Format: cell-based. As to conditions: AsPC-1 3D culture, read-out: Prolif AsPC-1 3D ATP IC50. The procedure: as §1
Assay [6] has as its system HPAC (homozygous mutant KRAS G12D human pancreatic cell line). Briefly: KRAS 3D-Cell Proliferation Assay, HPAC (CellTiter-Glo 3D, 7 days). Format: cell-based. As to conditions: HPAC 3D culture, read-out: Prolif HPAC 3D ATP IC50. Summed up: (§2)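 Cells were grown as 3D cultures in ultra-low attachment plates in RPMI-1640 with 10% FBS and 2 mM glutamine. Compound dilution series (0.3% DMSO final) were added after overnight culture, and plates were incubated for 7 days at 37 °C. CellTiter-Glo 3D luminescence was normalised to DMSO and 1 uM staurosporine, and IC50 was taken from 4-parameter Hill fits.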

For assay [7], the system named is H1975 (KRAS wild type human lung adenocarcinoma cell line). The experiment in a line: KRAS 3D-Cell Proliferation Assay, H1975 (CellTiter-Glo 3D, 7 days). Type of assay: cell-based. As to conditions: H1975 3D culture, read-out: Prolif H1975 3D ATP IC50. A digest of the protocol:
as §2

[8] abbreviates: read-out: KRas(wt) GDP HTRF IC50.

Several values for one entry are separate records, joined by “and”; a condition that tells them apart may be missing. Identical values can stand only once. Like-named read-outs stand apart in the source and are kept apart here.

T1 sequence (P01116-2 other isoform, or with tags, fused parts or gaps): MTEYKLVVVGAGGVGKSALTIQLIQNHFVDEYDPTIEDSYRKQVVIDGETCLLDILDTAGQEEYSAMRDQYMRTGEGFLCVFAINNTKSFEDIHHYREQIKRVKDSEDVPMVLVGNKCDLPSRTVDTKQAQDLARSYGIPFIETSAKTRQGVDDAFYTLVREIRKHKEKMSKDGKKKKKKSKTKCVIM
Sequence of KRAS G12D (P01116-2 other isoform, or with tags, fused parts or gaps G12D): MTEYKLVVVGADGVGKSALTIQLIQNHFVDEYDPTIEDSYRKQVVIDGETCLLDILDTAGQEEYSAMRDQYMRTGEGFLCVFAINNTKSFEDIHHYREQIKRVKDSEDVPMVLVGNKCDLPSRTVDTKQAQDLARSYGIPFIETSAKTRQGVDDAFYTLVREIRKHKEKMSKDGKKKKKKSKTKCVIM

The IC50 is the concentration needed to halve the response being measured. In the case of `Cc1cc(N)cc(-c2nc3c4c(nc(OC[C@@]56CCCN5C[C@H](F)C6)nc4c2F)N2C[C@H]4CC[C@H](N4)[C@H]2[C@H](C)O3)c1C(F)(F)F` [Compound 16, 3-((5S,5aS,6S,9R)-1-fluoro-12-(((2R,7aS)-2-fluorotetrahydro-1H-pyrrolizin-7a(5H)-yl)methoxy)-5-methyl-5a,6,7,8,9,10-hexahydro-5H-4-oxa-3,10a,11,13,14-pentaaza-6,9-methanonaphtho[1,8-ab]heptalen-2-yl)-5-methyl-4-(trifluoromethyl)aniline], the IC50 is 0.138 nM in assay [1]; 0.668 nM in assay [2] (setting [8]); 0.484 nM in assay [3]; 20000 nM in assay [4] (Homo sapiens, PC-9, 168 h).
Take `Cc1c(F)c(N)cc(-c2nc3c4c(nc(OC[C@]5(CN6CC7(COC7)C6)CC5(F)F)nc4c2F)N2C[C@H]4CC[C@H](N4)[C@H]2[C@H](C)O3)c1C(F)(F)F` (single isomer, unassigned) [165 b]: the IC50 came to 0.1 nM in assay [1]; 1.43 nM in assay [3]; 0.849 nM in assay [5]; 0.66 nM in assay [6]; 499 nM in assay [7].
Regarding `Cc1c(F)c(N)cc(-c2nc3c4c(nc(OC[C@@]56CCCN5C[C@H](F)C6)nc4c2F)N2C[C@H]4CC[C@H](N4)[C@@H]2C(C)O3)c1C(F)(F)F` (single isomer, unassigned) [237 (isomer 2)], the IC50 in assay [1] is 0.15 nM; in assay [2] (read-out: KRas HTRF IC50), 0.35 nM; in assay [5] (Homo sapiens, ASPC1, 168 h) it was 200 nM.
In the case of `Cc1cc(N)c(F)c(-c2nc3c4c(nc(OCC56CCN5CC(F)(F)C6)nc4c2F)N2C[C@H]4CC[C@H](N4)[C@H]2[C@H](C)O3)c1` (single isomer, unassigned) [Compound 23], the IC50 is 39500 nM and 94500 nM in assay [2] (setting [8]); 20000 nM in assay [5].
As for `Cc1c(F)c(N)cc(-c2nc3c4c(nc(OC[C@]5(CN6CC7(COC7)C6)CC5(F)F)nc4c2F)N2C[C@H]4CC[C@H](N4)[C@H]2[C@H](C(F)(F)F)O3)c1C(F)(F)F` (stereo in doubt) [255 b, 5-((5R,5aS,6S,9R)-12-(((R)-1-((2-oxa-6-azaspiro[3.3]heptan-6-yl)methyl)-2,2-difluorocyclopropyl)methoxy)-1-fluoro-5-(trifluoromethyl)-5a,6,7,8,9,10-hexahydro-5H-4-oxa-3,10a,11,13,14-pentaaza[6,9]methanonaphtho[1,8-ab]heptalen-2-yl)-2-fluoro-3-methyl-4-(trifluoromethyl)aniline], the IC50 in assay [1] turned out to be 0.27 nM; in assay [2] (read-out: KRas HTRF IC50) it was 1.17 nM; in assay [5], 4.7 nM; in assay [6], 4.21 nM; in assay [7], 308 nM.
Consider `Cc1c(F)c(N)cc(-c2nc3c4c(nc(OC[C@]5(CN6CC7(COC7)C6)CC5(F)F)nc4c2F)N2C[C@H]4CC[C@H](N4)[C@H]2[C@H](C(F)(F)F)O3)c1C(F)(F)F` (stereo in doubt) [255 a, 5-((5R,5aS,6S,9R)-12-(((R)-1-((2-oxa-6-azaspiro[3.3]heptan-6-yl)methyl)-2,2-difluorocyclopropyl)methoxy)-1-fluoro-5-(trifluoromethyl)-5a,6,7,8,9,10-hexahydro-5H-4-oxa-3,10a,11,13,14-pentaaza[6,9]methanonaphtho[1,8-ab]heptalen-2-yl)-2-fluoro-3-methyl-4-(trifluoromethyl)aniline], for which the IC50 in assay [1] is 0.41 nM; in assay [2] (read-out: KRas HTRF IC50), 1.39 nM; in assay [5] (Homo sapiens, ASPC1, 168 h), 6.6 nM; in assay [6], 1.66 nM; in assay [7] it was 120 nM.
Turning to `Cc1cc(N)c(F)c(-c2nc3c4c(nc(OC[C@@]56CCN5CC(F)(F)C6)nc4c2F)N2C[C@H]4CC[C@H](N4)[C@H]2[C@H](C)O3)c1C(F)(F)F` [Compound 92, 3-((5S,5aS,6S,9R)-12-(((S)-3,3-Difluoro-1-azabicyclo[3.2.0]heptan-5-yl)methoxy)-1-fluoro-5-methyl-5a,6,7,8,9,10-hexahydro-5H-4-oxa-3,10a,11,13,14-pentaaza-6,9-methanonaphtho[1,8-ab]heptalen-2-yl)-2-fluoro-5-methyl-4-(trifluoromethyl)aniline], the IC50 is 0.76 nM and 1.01 nM in assay [1]; 34.9 nM and 148 nM in assay [3]; 8130 nM in assay [4].
For `Cc1c(F)c(N)cc(-c2nc3c4c(nc(OC[C@]56CCN(C)C5COC6)nc4c2F)N2C[C@H]4CC[C@H](N4)[C@H]2[C@H](C)O3)c1C(F)(F)F` (single isomer, unassigned) [258 (isomer 2)], the IC50 was determined as 0.07 nM in assay [1]; 11 nM in assay [2] (read-out: KRas HTRF IC50); 6.9 nM in assay [5] (Homo sapiens, ASPC1, 168 h); 2.68 nM in assay [6] (Homo sapiens, HPAC, 168 h); 1550 nM in assay [7] (Homo sapiens, NCI-H1975, 168 h).
Consider `Nc1nc2c(-c3nc4c5c(ncnc5c3F)N3C[C@H]5CC[C@H](N5)[C@H]3CO4)ccc(F)c2s1` [Compound 55, 7-fluoro-4-((5aS,6S,9R)-1-fluoro-5a,6,7,8,9,10-hexahydro-5H-4-oxa-3,10a,11,13,14-pentaaza-6,9-methanonaphtho[1,8-ab]heptalen-2-yl)benzo[d]thiazol-2-amine], for which the IC50 in assay [1] was found to be 22200 nM; in assay [2] (setting [8]), 200000 nM; in assay [5] (Homo sapiens, ASPC1, 168 h) it was 20000 nM.
On to `C=C1CN2CCC[C@@]2(COc2nc3c4c(nc(-c5nc(N)cc(C)c5C(F)(F)F)c(F)c4n2)O[C@@H](C)[C@@H]2[C@@H]4CC[C@H](CN32)N4)C1` [Compound 48, 6-((5S,5aS,6S,9R)-1-fluoro-5-methyl-12-(((S)-2-methylenetetrahydro-1H-pyrrolizin-7a(5H)-yl)methoxy)-5a,6,7,8,9,10-hexahydro-5H-4-oxa-3,10a,11,13,14-pentaaza-6,9-methanonaphtho[1,8-ab]heptalen-2-yl)-4-methyl-5-(trifluoromethyl)pyridin-2-amine], for which the IC50 in assay [1] came out at 0.491 nM; in assay [2] (setting [8]) it was 10.5 nM; in assay [3], 28.5 nM; in assay [4] (Homo sapiens, PC-9, 168 h) it was 20000 nM.
With `C[C@@H]1Oc2nc(-c3nc(N)c(F)cc3C(F)(F)F)c(F)c3nc(OC[C@@]45CCCN4C[C@H](F)C5)nc(c23)N2C[C@H]3CC[C@H](N3)[C@@H]12` [Compound 84, 3-Fluoro-6-((5S,5aS,6S,9R)-1-fluoro-12-(((2R,7aS)-2-fluorotetrahydro-1H-pyrrolizin-7a(5H)-yl)methoxy)-5-methyl-5a,6,7,8,9,10-hexahydro-5H-4-oxa-3,10a,11,13,14-pentaaza-6,9-methanonaphtho[1,8-ab]heptalen-2-yl)-5-(trifluoromethyl)pyridin-2-amine], the IC50 turned out to be 24.9 nM in assay [1]; 4310 nM in assay [3]; 20000 nM in assay [4] (Homo sapiens, PC-9, 168 h).
`C#Cc1cccc2cc(O)cc(-c3nc4c5c(nc(OC[C@@]67CCCN6C[C@H](F)C7)nc5c3F)N3C[C@H]5CC[C@H](N5)[C@H]3CO4)c12` [Compound 3, 5-ethynyl-4-((5aS,6S,9R)-1-fluoro-12-(((2R,7aS)-2-fluorotetrahydro-1H-pyrrolizin-7a(5H)-yl)methoxy)-5a,6,7,8,9,10-hexahydro-5H-4-oxa-3,10a,11,13,14-pentaaza-6,9-methanonaphtho[1,8-ab]heptalen-2-yl)naphthalen-2-ol]: the IC50 amounted to 0.058 nM in assay [1]; 0.517 nM in assay [2] (setting [8]); 0.757 nM in assay [3]; 20000 nM in assay [4] (Homo sapiens, PC-9, 168 h).

The values above are taken from US20240025919A1, “AZA-TETRACYCLIC OXAZEPINE COMPOUNDS AND USES THEREOF” (Genentech, Inc., priority 2022, published 2024).
